Read-outs that look alike come from different tables or passages of the source.
Columns and labels:
Assay in all cases: biochemical
Design in all cases: Eurofins KinaseProfiler full panel at Km ATP, residual kinase activity (%) relative to DMSO
Pim-3(h) = target: T1, Pim-3(h) (Homo sapiens, UniProt Q86V86)
T1 construct: gene PIM3
Description: (§1) Eurofins performed a “Full KP Panel [Km ATP], KinaseProfile” which contains 429 radiometric kinase activity assays. The remaining kinase activity (%) was determined after treatment with the compounds at a concentration of 10 µM (Cfr. supporting information). Since we could not confirm the interaction between Spautin-1 analogues and USP13, a kinase screening was performed using a set of four compounds (Spautin-1 and three analogues) to discover off-targets and identify kinases that are potentially responsible for the reduction in cell viability observed in our screen (Table 2). The KINOMEscan from Eurofins was performed (see Table S1). This screen consists of a competitive binding assay in which the DNA-tagged kinase is incubated with one of the compounds in the presence of immobilized active site binding ligands. Binding of the compounds to the kinase hampers the binding of the kinase to the ligands and this inhibition was quantified by qPCR. The residual kinase activity, which represents the percentage of kinase attached to the immobilized ligands, was determined for 428 kinases at a standard screening concentration of 10 µM of the compounds dissolved in DMSO [61].

SAPK2b(h) = target: T2, SAPK2b(h) (Homo sapiens, UniProt Q15759)
T2 construct: gene MAPK11
Description: as §1

Axl(h) = target: T3, Axl(h) (Homo sapiens, UniProt P30530)
T3 sequence (P30530 1-894): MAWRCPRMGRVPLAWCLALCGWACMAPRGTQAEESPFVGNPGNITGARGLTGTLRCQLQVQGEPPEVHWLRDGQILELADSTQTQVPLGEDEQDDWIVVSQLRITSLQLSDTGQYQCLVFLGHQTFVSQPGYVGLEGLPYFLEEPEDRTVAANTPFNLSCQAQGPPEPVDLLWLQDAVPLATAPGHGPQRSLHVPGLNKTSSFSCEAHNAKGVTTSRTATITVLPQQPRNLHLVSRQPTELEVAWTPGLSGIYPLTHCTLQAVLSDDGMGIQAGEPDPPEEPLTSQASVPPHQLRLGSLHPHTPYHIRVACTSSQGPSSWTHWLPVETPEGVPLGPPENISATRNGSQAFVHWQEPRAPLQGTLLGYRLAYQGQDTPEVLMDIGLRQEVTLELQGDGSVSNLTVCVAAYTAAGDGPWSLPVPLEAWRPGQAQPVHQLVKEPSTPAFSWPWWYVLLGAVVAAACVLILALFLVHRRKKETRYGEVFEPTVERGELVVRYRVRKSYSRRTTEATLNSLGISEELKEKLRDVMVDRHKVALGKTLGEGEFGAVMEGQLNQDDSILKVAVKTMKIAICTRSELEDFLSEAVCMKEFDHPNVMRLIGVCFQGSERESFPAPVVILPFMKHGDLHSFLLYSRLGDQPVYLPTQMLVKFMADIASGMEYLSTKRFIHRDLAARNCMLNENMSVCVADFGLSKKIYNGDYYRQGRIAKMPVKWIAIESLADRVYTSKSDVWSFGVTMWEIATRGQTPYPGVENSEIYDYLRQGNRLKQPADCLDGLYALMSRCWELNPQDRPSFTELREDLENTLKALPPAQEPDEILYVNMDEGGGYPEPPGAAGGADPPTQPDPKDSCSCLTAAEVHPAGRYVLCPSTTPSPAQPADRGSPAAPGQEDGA
Description: as §1

RIPK2(h) = RIPK2(h) (Homo sapiens, UniProt O43353)
Description: as §1

[1] = target: T4, PI3 Kinase (p110a(E542K)/p85a)(h) (Homo sapiens, UniProt P42336, E542K)
T4 construct: gene PIK3CA
Description: as §1

STK25(h) = STK25(h) (Homo sapiens, UniProt O00506)
Description: as §1

ULK1(h) = target: T5, ULK1(h) (Homo sapiens, UniProt O75385)
T5 sequence (O75385 1-1050): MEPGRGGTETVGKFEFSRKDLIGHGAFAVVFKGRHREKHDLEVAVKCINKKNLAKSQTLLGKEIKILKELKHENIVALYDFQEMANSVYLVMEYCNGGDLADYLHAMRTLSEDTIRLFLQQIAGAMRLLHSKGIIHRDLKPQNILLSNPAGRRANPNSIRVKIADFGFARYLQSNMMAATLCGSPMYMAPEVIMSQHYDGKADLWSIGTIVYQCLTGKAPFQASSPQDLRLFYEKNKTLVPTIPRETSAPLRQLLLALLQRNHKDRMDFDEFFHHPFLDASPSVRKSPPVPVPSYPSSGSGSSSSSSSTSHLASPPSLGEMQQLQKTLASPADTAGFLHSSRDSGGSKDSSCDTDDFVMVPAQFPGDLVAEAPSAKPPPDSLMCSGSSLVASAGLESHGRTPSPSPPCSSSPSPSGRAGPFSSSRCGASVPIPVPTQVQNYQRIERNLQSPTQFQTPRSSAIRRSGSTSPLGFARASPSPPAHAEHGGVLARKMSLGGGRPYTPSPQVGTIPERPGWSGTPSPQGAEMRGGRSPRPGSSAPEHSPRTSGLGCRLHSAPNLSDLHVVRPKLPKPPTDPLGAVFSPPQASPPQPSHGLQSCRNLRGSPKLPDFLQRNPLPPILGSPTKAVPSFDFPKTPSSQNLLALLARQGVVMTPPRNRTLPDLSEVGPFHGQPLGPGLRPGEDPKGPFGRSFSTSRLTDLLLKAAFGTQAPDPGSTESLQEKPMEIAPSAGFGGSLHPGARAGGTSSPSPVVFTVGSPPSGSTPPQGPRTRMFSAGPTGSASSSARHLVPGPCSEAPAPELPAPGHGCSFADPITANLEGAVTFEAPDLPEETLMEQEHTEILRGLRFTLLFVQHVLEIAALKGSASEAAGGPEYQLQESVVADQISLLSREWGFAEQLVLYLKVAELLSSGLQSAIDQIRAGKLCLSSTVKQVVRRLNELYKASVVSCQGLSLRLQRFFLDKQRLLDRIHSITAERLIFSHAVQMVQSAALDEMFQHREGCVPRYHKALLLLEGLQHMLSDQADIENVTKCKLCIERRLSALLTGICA
Description: as §1

[2] = read-out: Residual activity (%) Spautin-1 5aa
[3] = read-out: Residual activity (%) 5as
[4] = read-out: Residual activity (%) 5at
[5] = read-out: Residual activity (%) 5ay

Chain of STK25(h) (O00506 whole entry): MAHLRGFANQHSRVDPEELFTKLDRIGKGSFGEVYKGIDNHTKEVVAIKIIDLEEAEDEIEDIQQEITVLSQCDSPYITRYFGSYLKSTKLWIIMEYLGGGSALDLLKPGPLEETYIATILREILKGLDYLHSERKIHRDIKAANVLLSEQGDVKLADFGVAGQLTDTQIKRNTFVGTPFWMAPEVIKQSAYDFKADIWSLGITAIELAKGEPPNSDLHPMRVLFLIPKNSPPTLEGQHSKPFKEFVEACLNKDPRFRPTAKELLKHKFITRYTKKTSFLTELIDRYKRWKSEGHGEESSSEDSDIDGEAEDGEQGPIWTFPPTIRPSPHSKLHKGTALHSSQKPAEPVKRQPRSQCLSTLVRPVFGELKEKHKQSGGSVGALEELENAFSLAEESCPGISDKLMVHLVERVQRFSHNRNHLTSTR
T4 sequence (P42336 whole entry E542K): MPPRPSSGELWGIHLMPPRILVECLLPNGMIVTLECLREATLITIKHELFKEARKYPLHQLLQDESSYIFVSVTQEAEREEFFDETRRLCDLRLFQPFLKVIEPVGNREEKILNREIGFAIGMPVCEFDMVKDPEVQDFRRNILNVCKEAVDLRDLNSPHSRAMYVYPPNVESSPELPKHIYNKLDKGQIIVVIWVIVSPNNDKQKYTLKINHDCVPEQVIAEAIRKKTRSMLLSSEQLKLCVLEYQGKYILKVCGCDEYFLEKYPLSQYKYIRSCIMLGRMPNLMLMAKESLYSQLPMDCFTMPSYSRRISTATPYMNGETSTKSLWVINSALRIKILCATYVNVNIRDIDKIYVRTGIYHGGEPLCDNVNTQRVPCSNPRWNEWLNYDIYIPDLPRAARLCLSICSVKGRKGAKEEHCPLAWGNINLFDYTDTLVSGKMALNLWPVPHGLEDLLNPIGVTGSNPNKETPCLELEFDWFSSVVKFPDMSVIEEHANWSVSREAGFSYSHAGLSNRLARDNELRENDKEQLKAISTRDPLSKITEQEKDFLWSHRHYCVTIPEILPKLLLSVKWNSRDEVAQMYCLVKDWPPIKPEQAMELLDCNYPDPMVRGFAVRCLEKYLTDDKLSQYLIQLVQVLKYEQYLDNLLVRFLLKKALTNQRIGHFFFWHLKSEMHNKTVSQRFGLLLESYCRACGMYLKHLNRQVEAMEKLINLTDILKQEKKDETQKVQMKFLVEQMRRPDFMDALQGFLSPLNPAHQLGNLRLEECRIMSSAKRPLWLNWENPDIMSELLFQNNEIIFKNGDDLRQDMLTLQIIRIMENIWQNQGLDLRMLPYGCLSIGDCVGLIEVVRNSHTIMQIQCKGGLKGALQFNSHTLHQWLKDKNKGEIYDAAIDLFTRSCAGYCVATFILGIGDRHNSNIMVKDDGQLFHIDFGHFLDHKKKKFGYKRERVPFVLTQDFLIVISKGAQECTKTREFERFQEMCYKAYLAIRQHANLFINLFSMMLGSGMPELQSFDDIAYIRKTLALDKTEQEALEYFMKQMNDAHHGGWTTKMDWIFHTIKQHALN
T4 sequence (P27986 whole entry partner): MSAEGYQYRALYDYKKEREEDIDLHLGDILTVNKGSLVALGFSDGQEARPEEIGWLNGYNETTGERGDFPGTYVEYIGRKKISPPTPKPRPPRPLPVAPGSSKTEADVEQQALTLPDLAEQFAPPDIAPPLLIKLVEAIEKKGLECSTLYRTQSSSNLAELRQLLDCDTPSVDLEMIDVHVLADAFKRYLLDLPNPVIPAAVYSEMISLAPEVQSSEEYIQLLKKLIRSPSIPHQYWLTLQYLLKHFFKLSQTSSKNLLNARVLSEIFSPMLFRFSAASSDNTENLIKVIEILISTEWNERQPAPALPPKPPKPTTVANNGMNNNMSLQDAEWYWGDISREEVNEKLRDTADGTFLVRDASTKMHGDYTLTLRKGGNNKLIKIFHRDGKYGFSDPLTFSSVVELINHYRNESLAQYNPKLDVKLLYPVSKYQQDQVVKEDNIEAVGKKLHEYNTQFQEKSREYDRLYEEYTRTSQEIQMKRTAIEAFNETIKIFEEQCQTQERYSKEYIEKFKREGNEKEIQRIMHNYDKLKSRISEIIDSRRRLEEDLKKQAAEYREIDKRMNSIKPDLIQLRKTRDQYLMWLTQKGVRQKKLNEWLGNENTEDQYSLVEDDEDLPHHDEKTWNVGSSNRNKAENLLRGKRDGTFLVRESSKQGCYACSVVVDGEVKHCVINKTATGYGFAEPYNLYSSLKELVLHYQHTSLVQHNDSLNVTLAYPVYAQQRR
Chain of RIPK2(h) (O43353 whole entry): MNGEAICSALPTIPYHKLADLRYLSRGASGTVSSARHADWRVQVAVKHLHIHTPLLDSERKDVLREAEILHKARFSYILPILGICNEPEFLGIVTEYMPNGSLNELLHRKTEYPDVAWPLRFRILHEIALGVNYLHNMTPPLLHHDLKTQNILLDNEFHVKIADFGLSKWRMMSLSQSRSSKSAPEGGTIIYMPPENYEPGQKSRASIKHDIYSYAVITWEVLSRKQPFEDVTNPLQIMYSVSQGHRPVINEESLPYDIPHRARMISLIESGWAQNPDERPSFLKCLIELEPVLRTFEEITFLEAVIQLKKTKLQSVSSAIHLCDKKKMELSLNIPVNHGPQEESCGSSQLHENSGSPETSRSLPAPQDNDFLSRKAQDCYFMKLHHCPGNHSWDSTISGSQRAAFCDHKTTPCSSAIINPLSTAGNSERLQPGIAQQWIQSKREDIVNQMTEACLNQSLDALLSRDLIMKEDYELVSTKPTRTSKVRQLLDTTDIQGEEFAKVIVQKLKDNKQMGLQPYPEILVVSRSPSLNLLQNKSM
T2 sequence (Q15759 whole entry): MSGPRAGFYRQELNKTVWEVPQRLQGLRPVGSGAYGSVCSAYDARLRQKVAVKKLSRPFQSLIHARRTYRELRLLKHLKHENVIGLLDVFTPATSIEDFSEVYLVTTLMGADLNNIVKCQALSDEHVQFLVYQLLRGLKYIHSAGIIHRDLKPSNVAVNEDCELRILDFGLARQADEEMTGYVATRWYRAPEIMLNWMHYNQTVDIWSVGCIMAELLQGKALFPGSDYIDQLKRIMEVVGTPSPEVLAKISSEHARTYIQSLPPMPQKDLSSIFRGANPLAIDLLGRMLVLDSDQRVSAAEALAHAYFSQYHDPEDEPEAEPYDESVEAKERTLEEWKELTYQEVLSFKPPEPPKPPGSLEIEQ

## Fc1ccc(CNc2ncnc3ccc(F)cc23)cc1 [5aa, 6-Fluoro-N-(4-fluorobenzyl)-4-Quinazolinamine]
Pim-3(h); [2]
  remaining activity at 10 µM: 123%
SAPK2b(h); [2]
  remaining activity at 10 µM: 79%
Axl(h); [2]
  remaining activity at 10 µM: 62%
RIPK2(h); [2]
  remaining activity at 10 µM: 82%
[1]; [2]
  remaining activity at 10 µM: 94%
STK25(h); [2]
  remaining activity at 10 µM: 114%
ULK1(h); [2]
  remaining activity at 10 µM: 99%

## Fc1ccc(CCNc2ncnc3ccc(F)cc23)cc1 [5as, 6-Fluoro-N-[2-(4-Fluorophenyl)Ethyl]-4-Quinazolinamine]
Pim-3(h); [3]
  remaining activity at 10 µM: 92%
SAPK2b(h); [3]
  remaining activity at 10 µM: 95%
Axl(h); [3]
  remaining activity at 10 µM: 90%
RIPK2(h); [3]
  remaining activity at 10 µM: 86%
[1]; [3]
  remaining activity at 10 µM: 91%
STK25(h); [3]
  remaining activity at 10 µM: 112%
ULK1(h); [3]
  remaining activity at 10 µM: 91%

## Fc1ccc2ncnc(NCCc3ccc(Cl)cc3)c2c1 [5at, N-[2-(4-Chlorophenyl)Ethyl]-6-Fluoro-4-Quinazolinamine]
Pim-3(h); [4]
  remaining activity at 10 µM: 97%
SAPK2b(h); [4]
  remaining activity at 10 µM: 84%
Axl(h); [4]
  remaining activity at 10 µM: 75%
RIPK2(h); [4]
  remaining activity at 10 µM: 86%
[1]; [4]
  remaining activity at 10 µM: 93%
STK25(h); [4]
  remaining activity at 10 µM: 111%
ULK1(h); [4]
  remaining activity at 10 µM: 84%

## COc1ccc2ncnc(Nc3cccc(F)c3)c2c1 [5ay, N-(3-Fluorophenyl)-6-Methoxy-4-Quinazolinamine]
Pim-3(h); [5]
  remaining activity at 10 µM: 96%
SAPK2b(h); [5]
  remaining activity at 10 µM: 83%
Axl(h); [5]
  remaining activity at 10 µM: 64%
RIPK2(h); [5]
  remaining activity at 10 µM: 22%
[1]; [5]
  remaining activity at 10 µM: 88%
STK25(h); [5]
  remaining activity at 10 µM: 114%
ULK1(h); [5]
  remaining activity at 10 µM: 93%
